This is an account of results in ChEMBL document CHEMBL4627408, “Metabolic Activation of Pirfenidone Mediated by Cytochrome P450s and Sulfotransferases” (J Med Chem, 2020).

Data set [1] concerns the target T1, Cytochrome P450 3A5 (Homo sapiens, UniProt P20815). The data set is described as follows: Drug metabolism assessed as human recombinant CYP3A5-mediated 5-methylene-1-phenyl-pyridin-1-ium-2-one formation at 50 uM incubated for 45 mins in presence of NADPH and glutathione by LC-MS/MS analysis. Particulars: recombinant enzyme, 0.75 h. Type of data set: ADME.
Data set [2] is described as follows: Toxicity in rat assessed as induction of liver injury at 150 to 200 mg/kg, ip. It counts as organism-based. Particulars: in vivo.
In the next data set the target is T2, Cytochrome P450 2A6 (Homo sapiens, UniProt P11509).
T2 sequence (P11509 whole entry): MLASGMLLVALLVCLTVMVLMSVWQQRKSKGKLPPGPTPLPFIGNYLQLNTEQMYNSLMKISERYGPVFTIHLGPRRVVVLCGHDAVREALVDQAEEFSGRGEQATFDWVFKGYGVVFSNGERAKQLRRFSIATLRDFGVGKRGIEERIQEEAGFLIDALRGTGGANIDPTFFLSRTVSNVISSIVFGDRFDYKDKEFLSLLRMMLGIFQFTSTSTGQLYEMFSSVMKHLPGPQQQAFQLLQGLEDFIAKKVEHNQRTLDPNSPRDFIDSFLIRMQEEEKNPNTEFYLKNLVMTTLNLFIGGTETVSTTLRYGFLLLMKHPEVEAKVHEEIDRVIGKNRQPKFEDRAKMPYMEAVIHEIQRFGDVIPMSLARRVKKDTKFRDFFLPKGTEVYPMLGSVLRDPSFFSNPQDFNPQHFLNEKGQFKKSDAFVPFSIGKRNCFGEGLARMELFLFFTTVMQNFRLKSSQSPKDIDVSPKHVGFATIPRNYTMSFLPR
The experiment in a line: Drug metabolism assessed as human recombinant CYP2A6-mediated compound activation using 50 uM pirfenidone incubated for 45 mins in presence of NADPH and glutathione by LC-MS/MS analysis. Type of data set: ADME. Particulars: recombinant enzyme, 0.75 h.

Data set [3] can be described thus: Drug metabolism in rat liver microsomes assessed as 5-Hydroxymethyl-1-phenyl-1H-pyridine-2-one formation at 50 uM incubated for 45 mins in presence of NADPH and glutathione by LC-MS/MS analysis. As to conditions: 0.75 h. It counts as ADME, Microsome. A general note: Microsomes from liver hold many membrane-bound enzymes, among them those of drug oxidation.
In data set [4] the target is T3, Cytochrome P450 3A4 (Homo sapiens, UniProt P08684). The experiment in a line: Drug metabolism assessed as human recombinant CYP3A4-mediated 5-methylene-1-phenyl-pyridin-1-ium-2-one formation at 50 uM incubated for 45 mins in presence of NADPH and glutathione by LC-MS/MS analysis. It counts as ADME. As to conditions: recombinant enzyme, 0.75 h.
Data set [5] is described as follows: Drug metabolism in rat liver microsomes assessed as Retention time of GSH metabolite at 50 uM incubated for 45 mins in presence of NADPH and glutathione by LC-MS/MS analysis. It counts as ADME, Microsome. Particulars: 0.75 h.
The nature of data set [6]: Drug metabolism in rat liver assessed as formation of GSH-conjugate at 100 mg/kg, ip measured up to 3 hrs by LC-MS/MS analysis. Particulars: in vivo. Type of data set: ADME, organism-based.
Data set [7] in a line: Drug metabolism in rat bile assessed as formation of (2R)-2-acetamido-3-[(6-oxo-1-phenyl-3-pyridyl)methylsulfanyl]propanoic acid at 100 mg/kg, ip measured after 2 hrs by LC-MS/MS analysis. As to conditions: in vivo. It counts as ADME, organism-based.
A further data set relates to Hepatocyte. The experiment in a line: Toxicity in rat primary hepatocytes at 800 uM. Type of data set: cell-based.
Data set [8] in a line: Drug metabolism in rat liver assessed as formation of GSH-conjugate by measuring hepatic protein adduction formation at 50 to 200 mg/kg, ip measured after 1 hr by LC-MS/MS analysis. It counts as ADME, organism-based. As to conditions: in vivo.
A short description of data set [9]: Drug metabolism in rat liver assessed as formation of GSH-conjugate by measuring retention time of cysteine adduct in proteolytic protein samples at 10 to 400 mg/kg, ip measured up to 3 hrs by LC-MS/MS analysis. It counts as ADME, organism-based. Particulars: in vivo.
Data set [10] can be described thus: Retention time in rat liver microsomes treated with 50 uM pirfenidone incubated for 45 mins in presence of NADPH and NAC by LC-MS/MS analysis. It counts as ADME, Microsome. As to conditions: 0.75 h.
Data set [11] addresses T1, Cytochrome P450 3A5. The experiment in a line: Drug level assessed as human recombinant CYP3A5-mediated compound formation using 50 uM pirfenidone incubated for 45 mins in presence of NADPH and glutathione by LC-MS/MS analysis. Type of data set: ADME. As to conditions: recombinant enzyme, 0.75 h.
For data set [12], the target named is T3, Cytochrome P450 3A4. The experiment in a line: Drug level assessed as human recombinant CYP3A4-mediated compound formation using 50 uM pirfenidone incubated for 45 mins in presence of NADPH and glutathione by LC-MS/MS analysis. It counts as ADME. Particulars: recombinant enzyme, 0.75 h.
Data set [13] in a line: Retention time in rat liver microsomes treated with 50 uM pirfenidone incubated for 45 mins in presence of NADPH by LC-MS/MS analysis. Particulars: 0.75 h. It counts as ADME, Microsome.

T1 sequence (P20815 whole entry): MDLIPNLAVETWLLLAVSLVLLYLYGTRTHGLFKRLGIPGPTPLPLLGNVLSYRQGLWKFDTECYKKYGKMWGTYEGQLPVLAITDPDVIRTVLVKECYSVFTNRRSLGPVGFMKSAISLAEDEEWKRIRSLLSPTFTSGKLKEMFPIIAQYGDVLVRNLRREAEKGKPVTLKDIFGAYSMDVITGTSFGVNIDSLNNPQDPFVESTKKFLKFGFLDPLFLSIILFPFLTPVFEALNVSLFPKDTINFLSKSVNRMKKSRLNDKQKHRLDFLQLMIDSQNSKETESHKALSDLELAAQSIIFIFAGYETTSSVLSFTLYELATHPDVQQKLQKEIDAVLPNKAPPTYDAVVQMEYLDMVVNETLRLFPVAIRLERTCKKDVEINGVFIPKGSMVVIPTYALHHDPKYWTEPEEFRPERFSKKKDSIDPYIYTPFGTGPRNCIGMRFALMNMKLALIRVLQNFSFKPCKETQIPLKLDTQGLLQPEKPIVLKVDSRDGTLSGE
T3 sequence (P08684 whole entry): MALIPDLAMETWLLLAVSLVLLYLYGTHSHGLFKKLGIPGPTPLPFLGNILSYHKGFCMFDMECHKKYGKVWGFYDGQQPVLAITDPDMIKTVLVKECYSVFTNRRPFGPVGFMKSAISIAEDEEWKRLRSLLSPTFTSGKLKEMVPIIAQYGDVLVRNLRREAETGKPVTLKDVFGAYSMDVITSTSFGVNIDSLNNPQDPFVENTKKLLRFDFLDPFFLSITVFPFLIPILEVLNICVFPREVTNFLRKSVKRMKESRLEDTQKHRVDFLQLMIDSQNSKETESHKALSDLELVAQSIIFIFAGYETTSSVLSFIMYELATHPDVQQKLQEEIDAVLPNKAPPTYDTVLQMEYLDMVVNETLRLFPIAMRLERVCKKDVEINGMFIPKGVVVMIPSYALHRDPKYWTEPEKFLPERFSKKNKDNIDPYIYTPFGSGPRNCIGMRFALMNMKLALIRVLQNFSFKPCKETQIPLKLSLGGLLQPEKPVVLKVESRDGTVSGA

With `Cc1ccc(=O)n(-c2ccccc2)c1` [PIRFENIDONE], the Drug metabolism result at Cytochrome P450 3A5 [1] is reported as “Metabolite_Detected”; on Cytochrome P450 2A6, “Metabolite_Detected”; in [3], “Metabolite_Detected”; on Cytochrome P450 3A4 [4] it was “Metabolite_Detected”; in data set [6], “Dose-dependent effect”; in data set [7] it was “Metabolite_Detected”. The Drug metabolism entry in [8] was “Dose-dependent effect”. The Activity result (in [2]; with Hepatocyte) was “Non-Toxic” each time. The Retention_time is recorded as 6.6 min in data set [5] and 6.24 min in data set [9].
Turning to `CC(=O)N[C@@H](CSCc1ccc(=O)n(-c2ccccc2)c1)C(=O)O`, in data set [10], the Retention_time was 7.26 min.
Turning to `C=C1C=CC(=O)[N+](c2ccccc2)=C1`, the Drug uptake entry at Cytochrome P450 3A5 [11] and at Cytochrome P450 3A4 [12] was “Metabolite_Detected” in each case.
Regarding `O=c1ccc(CO)cn1-c1ccccc1`, the Retention_time in [13] came out at 7.25 min.
